US20180110762A1, “Compositions Methods for Treating Chronic Kidney Disease” (Merck Sharp & Dohme Corp, priority 2015, published 2018)
Marks after values point to notes of the source that are not given here.

Legend:
Assay type in all cases: in vivo
[1] = system: male obese ZSF1 rats (diabetic nephropathy model); assay: ZSF1 rat study: GFR measurement by FITC-sinistrin clearance; settings: obese ZSF1 rats, 10 mpk in-feed, week 28
Method: (§1) The effects of Compound A (“A”) on renal function, plasma triglycerides, plasma cholesterol, kidney collagen I, kidney collagen III, renal histology, glomerular filtration rate, fibrosis score, and mRNA gene expression (profibrotic genes and integrin β3) were evaluated in male obese ZSF1 rats (a hybrid F1 of Zucker diabetic fatty rat and spontaneously hypertensive heart failure rat; a diabetic nephropathy model) when administered as in-feed for 28 weeks. Sixty obese male ZSF1 rats were randomized to five groups: Obese control (n=12), Compound A 60 mpk (n=12), Compound A 200 mpk (n=12), Compound A 400 mpk (n=12), Enalapril 10 mpk (n=12); Eight lean male ZSF1 rats were used for normal control. Renal functional changes were monitored by blood and urine analysis following in-feed dosing for 28 weeks. Compound exposure was also monitored during the study.
For the measurement of GFR, a miniaturized device (NIC-Kidney, Mannheim Pharma & Diagnostics, Mannheim, Germany) was used. In brief, the device (batteries, diodes, and microprocessor) containing an optical component was affixed on a depilated region of the back using a double-sided sticky patch (Lohmann GmbH KG, 56567, Neuwied, Germany) under isofluorane anesthesia (3% isoflurane mixed with oxygen). After a resting baseline period of 1-1.5 minutes, a bolus of FITC-sinistrin (5 mg/100 g body weight, dissolved in 0.5 mL sterile isotonic saline) was injected through the tail vein. The rat was then placed in a clean cage for recovery from anesthesia to responsible ambulation. […] The excretion kinetics of FITC-sinistrin was determined using a sampling rate of 60 measurements per minute with an excitation time of 10 milliseconds per measurement for 120 minutes after the injection. One compartment model was used for FITC-sinistrin clearance. After completion of GFR measurement, the device was gently removed from the skin and the rat returned to its home cage.

[2] = system: male obese ZSF1 rats (diabetic nephropathy model); assay: ZSF1 rat study: kidney mRNA expression of profibrotic genes and integrin beta3; settings: obese ZSF1 rats, 10 mpk in-feed, week 28
Method: as §1

[3] = system: male obese ZSF1 rats (diabetic nephropathy model); assay: ZSF1 rat study: plasma triglyceride and cholesterol; settings: obese ZSF1 rats, 10 mpk in-feed; for plasma cholesterol levels: in mg/dL (unit assumed)
Method: as §1

[4] = system: male obese ZSF1 rats (diabetic nephropathy model); assay: ZSF1 rat study: renal fibrosis score (histology); settings: obese ZSF1 rats, 10 mpk in-feed, week 28
Method: as §1
Upon completion of the study, animals were euthanized and blood and organs (kidney, heart, aorta, eyes, and lumber vertebrae (LV1-LV5) and left femur) were collected for histology assessment (including EM for the kidneys) or DEXA scan (lumber vertebrae and left femur). Kidney tissues were fixed in 10% formalin and then paraffin embedded. Tissue sections were stained with hematoxylin and eosin (H&E), periodic acid-Schiff (PAS), and Masson's trichrome and evaluated under light microscope. The severity of histopathologic changes in renal tubules, interstitium, vasculature, and glomeruli were graded on a 1 to 5 scale corresponding to minimal, mild, moderate, marked, and severe as described previously. Sections from both kidneys were examined. Collagen deposition in the kidney was graded on a 1 to 5 scale corresponding to minimal, mild, moderate, marked, and severe, based on the blue stained area size and intensity.

[5] = ZSF1 rat 28-week in-feed study: body weight, food and water intake; settings: obese ZSF1 rats, 10 mpk in-feed
Method: as §1

[6] = system: male obese ZSF1 rats (diabetic nephropathy model); assay: ZSF1 rat 28-week in-feed study: urinary protein (UPCR, 24 h excretion); settings: obese ZSF1 rats, 10 mpk in-feed
Method: as §1

[7] = system: male obese ZSF1 rats (diabetic nephropathy model); assay: ZSF1 rat study: kidney collagen I and III immunostaining; settings: obese ZSF1 rats, 10 mpk in-feed, week 28
Method: as §1
Following deparaffinization and rehydration, each kidney tissue section was processed to identify collagen I and III deposition. The primary antibodies used were rabbit anti-type I collagen polyclonal antibody (Abcam, Cambridge, Mass.) diluted at 2 ug/ml, and rabbit anti-type III collagen polyclonal antibody (Lifespan, Seattle, Wash.) at 3 ug/ml. The signal was developed by using Super PicTure HRP Polymer Rabbit Primary kit (Invitrogen) and the slides were counterstained with hematoxylin. The Aperio ScanScope XT Slide Scanner (Aperio Technologies, Vista, Calif.) system was used to capture whole slide digital images with a 20× objective. Digital images were managed using Aperio Spectrum. The positive stains were identified and quantified using a macro created from a color deconvolution algorithm (Aperio Technologies, Vista, Calif.).

Compound: CCOC(=O)[C@H](CCc1ccccc1)N[C@@H](C)C(=O)N1CCC[C@H]1C(=O)O [Enalapril, reference compound]
- FITC-sinistrin clearance, % change of improvement compared to Obese Vehicle group [1]: 59.6%****
- Glomerular Filtration Rate [1]: 971.9 ± 53.3 uLs/Min/100 gm BW
- Collagen I (a1) expression in the kidney [2]: 0.54 ± 0.02
- Collagen III (a1) expression in the kidney [2]: 0.39 ± 0.02
- Integrin beta3 expression in the kidney [2]: 0.68 ± 0.03
- PAI-1 expression in the kidney [2]: 0.52 ± 0.04
- Plasma Triglyceride ([3]; week 2): 2979.8 ± 161.7 mg/dL
- plasma cholesterol levels ([3]; week 2): 220.9 ± 5.9
- Plasma Triglyceride ([3]; week 4): 3212.4 ± 137.6 mg/dL
- plasma cholesterol levels ([3]; week 4): 251.1 ± 7.4
- Plasma Triglyceride ([3]; week 6): 2866.6 ± 145.5 mg/dL
- plasma cholesterol levels ([3]; week 6): 232.5 ± 6.0
- Plasma Triglyceride ([3]; week 8): 3770.3 ± 280.6 mg/dL
- plasma cholesterol levels ([3]; week 8): 294.3 ± 6.7
- Plasma Triglyceride ([3]; week 12): 3298.3 ± 221.4 mg/dL
- plasma cholesterol levels ([3]; week 12): 290.2 ± 7.6
- Plasma Triglyceride ([3]; week 16): 3554.6 ± 186.3 mg/dL
- plasma cholesterol levels ([3]; week 16): 319.3 ± 9.9
- Plasma Triglyceride ([3]; week 21): 3224.3 ± 240.5 mg/dL
- plasma cholesterol levels ([3]; week 21): 321.1 ± 11.3
- Plasma Triglyceride ([3]; week 24): 3180.2 ± 204.5 mg/dL
- plasma cholesterol levels ([3]; week 24): 354.3 ± 12.5
- Plasma Triglyceride ([3]; week 28): 2855.1 ± 291.3 mg/dL
- plasma cholesterol levels ([3]; week 28): 368.8 ± 13.2
- Plasma Triglyceride ([3]; week −2): 2023.9 ± 82.1 mg/dL
- plasma cholesterol levels ([3]; week −2): 187.1 ± 5.4
- renal fibrosis score (expressed as 0-5) [4]: 2.0 ± 0.1
- Body Weight ([5]; week 1): 570.2 ± 10.3 grams
- Food Intake ([5]; week 1): 30.1 ± 1.3 grams/24 h
- Water Intake ([5]; week 1): 50.2 ± 6.2 mls/24 h
- Body Weight ([5]; week 2): 578.3 ± 11.2 grams
- Food Intake ([5]; week 2): 31.7 ± 1.4 grams/24 h
- Water Intake ([5]; week 2): 55.0 ± 5.2 mls/24 h
- Body Weight ([5]; week 4): 585.7 ± 11.1 grams
- Food Intake ([5]; week 4): 33.1 ± 1.0 grams/24 h
- Water Intake ([5]; week 4): 56.6 ± 6.0 mls/24 h
- Body Weight ([5]; week 6): 606.1 ± 11.6 grams
- Food Intake ([5]; week 6): 33.1 ± 1.0 grams/24 h
- Water Intake ([5]; week 6): 61.7 ± 5.5 mls/24 h
- Body Weight ([5]; week 8): 623.8 ± 13.3 grams
- Food Intake ([5]; week 8): 35.1 ± 1.5 grams/24 h
- Water Intake ([5]; week 8): 85.4 ± 7.4 mls/24 h
- Body Weight ([5]; week 10): 637.2 ± 14.1 grams
- Body Weight ([5]; week 12): 655.6 ± 14.2 grams
- Food Intake ([5]; week 12): 36.6 ± 1.5 grams/24 h
- Water Intake ([5]; week 12): 91.7 ± 7.5 mls/24 h
- Body Weight ([5]; week 14): 658.1 ± 16.2 grams
- Body Weight ([5]; week 16): 671.1 ± 16.8 grams
- Food Intake ([5]; week 16): 33.3 ± 1.6 grams/24 h
- Water Intake ([5]; week 16): 83.3 ± 8.3 mls/24 h
- Body Weight ([5]; week 18): 682.1 ± 16.4 grams
- Body Weight ([5]; week 21): 709.5 ± 18.0 grams
- Food Intake ([5]; week 21): 37.7 ± 1.6 grams/24 h
- Water Intake ([5]; week 21): 75.8 ± 5.9 mls/24 h
- Body Weight ([5]; week 24): 733.7 ± 20.2 grams
- Food Intake ([5]; week 24): 35.5 ± 1.3 grams/24 h
- Water Intake ([5]; week 24): 89.7 ± 7.9 mls/24 h
- Body Weight ([5]; week 28): 753.7 ± 21.8 grams
- Food Intake ([5]; week 28): 33.6 ± 1.5 grams/24 h
- Water Intake ([5]; week 28): 68.0 ± 6.5 mls/24 h
- Body Weight ([5]; week −2): 522.2 ± 10.2 grams
- Food Intake ([5]; week −2): 37.5 ± 1.5 grams/24 h
- Water Intake ([5]; week −2): 68.1 ± 4.9 mls/24 h
- 24 h Urinary Protein Excretion ([6]; week 1): 73.9 ± 3.8 mg/24 h
- UPCR (urinary protein/creatinine ratio) ([6]; week 1): 6.3 ± 0.3 mg/mg
- 24 h Urinary Protein Excretion ([6]; week 2): 91.2 ± 4.9 mg/24 h
- UPCR (urinary protein/creatinine ratio) ([6]; week 2): 7.4 ± 0.4 mg/mg
- 24 h Urinary Protein Excretion ([6]; week 4): 96.1 ± 5.1 mg/24 h
- UPCR (urinary protein/creatinine ratio) ([6]; week 4): 8.0 ± 0.4 mg/mg
- 24 h Urinary Protein Excretion ([6]; week 6): 92.2 ± 6.0 mg/24 h
- UPCR (urinary protein/creatinine ratio) ([6]; week 6): 7.3 ± 0.4 mg/mg
- 24 h Urinary Protein Excretion ([6]; week 8): 135.3 ± 10.2 mg/24 h
- UPCR (urinary protein/creatinine ratio) ([6]; week 8): 10.2 ± 0.6 mg/mg
- 24 h Urinary Protein Excretion ([6]; week 12): 234.8 ± 16.4 mg/24 h
- UPCR (urinary protein/creatinine ratio) ([6]; week 12): 17.1 ± 0.9 mg/mg
- 24 h Urinary Protein Excretion ([6]; week 16): 252.2 ± 21.1 mg/24 h
- UPCR (urinary protein/creatinine ratio) ([6]; week 16): 14.0 ± 0.7 mg/mg
- 24 h Urinary Protein Excretion ([6]; week 21): 274.5 ± 16.8 mg/24 h
- UPCR (urinary protein/creatinine ratio) ([6]; week 21): 15.6 ± 0.6 mg/mg
- 24 h Urinary Protein Excretion ([6]; week 24): 289.4 ± 16.5 mg/24 h
- UPCR (urinary protein/creatinine ratio) ([6]; week 24): 16.6 ± 0.8 mg/mg
- 24 h Urinary Protein Excretion ([6]; week 28): 309.6 ± 15.8 mg/24 h
- UPCR (urinary protein/creatinine ratio) ([6]; week 28): 19.5 ± 0.8 mg/mg
- 24 h Urinary Protein Excretion ([6]; week −2): 132.9 ± 9.9 mg/24 h
- UPCR (urinary protein/creatinine ratio) ([6]; week −2): 10.8 ± 0.8 mg/mg
- kidney collagen I protein levels [7]: 34.83 ± 0.71 % of area
- kidney collagen III protein levels [7]: 19.19 ± 0.90 % of area
